Results as given in US20240368170A1, “CINNOLINE COMPOUNDS AND USES THEREOF” (Genentech, Inc., priority 2018, published 2024).

What follows are compounds tested on primary human pan T cells (assay: Human T-cell IL2 Induction Assay). Details: assayed concentration 2.78 μM; anti-CD3/anti-CD28 stimulation.
Assay type: cell-based
Procedure: Example B3: Human T-cell IL2 Induction Assay
Assay Principle: Anti-CD3 and anti-CD28 activates TCR signaling in primary human pan T cells leading to IL-2 promoter induction. Secreted IL-2 in cell culture supernatant is detected by electrochemiluminescence using a capture antibody against IL-2 and an anti-IL-2 antibody labeled with SULFO-tag. Also see www.mesoscale.com for additional electrochemiluminescence technology information.
Assay Procedure: Incubate primary human pan T cells with varying concentrations of test compounds for 30 minutes in a humidified incubator at 37° C. and 5% CO2. Transfer cells to a plate pre-coated with a fixed concentration of anti-human CD3 (determined separately for each donor lot) and add soluble anti-human CD28 (final concentration=1 μg/ml). Stimulate cells in a humidified incubator at 37° C. and 5% CO2 for 4 hours. Transfer 25 μl of supernatant to a MSD single spot plate pre-coated with an anti-human IL-2 antibody. Incubate MSD plate overnight at 4° C. with gentle shaking. Wash MSD plate 4× with wash buffer. […] Wash MSD plate 4× with wash buffer and add 150 μl 2×MSD read buffer. Read on an MSD instrument. […]
Exemplary compounds of Formula (I) were tested in the human T-cell IL-2 induction assays. The % increase measured for IL-2 in cells treated by the test compounds relative to untreated cells are provided in Table B2 for certain compounds.

For `Cc1c(N)cncc1-c1cc(N)c2nnc(NC(=O)[C@@H]3C[C@H]3C#N)cc2c1` (single isomer, unassigned) [Compound 23a], the “% IL-2 increase relative to untreated cells” value was 538%.

Same assay, conditions: assayed concentration 8.33 μM; anti-CD3/anti-CD28 stimulation

In the case of `Cc1ccncc1-c1cc(N)c2nnc(NC(=O)C3CC3)cc2c1` [Compound 25, N-(8-Amino-6-(4-methylpyridin-3-yl)cinnolin-3-yl)cyclopropanecarboxamide], the “% IL-2 increase relative to untreated cells” value is reported as 192%.

Each compound was assayed against HPK1 (Homo sapiens, UniProt Q92918) (assay: HPK1 Lantha Binding Assay ("Lanth")). Details: L = Lanth.
Procedure: Example B2: HPK1 Lantha Binding Assay (“Lanth”)
For the reference compound, the top concentration was 1 mM. To the plate was added 10 μL 2 mM staurosporine in wells J1-P1 and A24-H24. A 11 point 5-fold compound serial dilution was performed using the Bravo liquid handling platform. […] The compound plate was centrifuged at 2500 rpm for 1 min. From the compound plate was transferred 80n1 of the compounds into an assay plate using the Echo liquid handler system. One compound plate makes two assay plates. Each assay plate is sealed and stored in an N2 cabinet.
The following assay concentrations and times were used: 2 nM HPK1, 2 nM Eu-Anti-GST Ab, and 15 nM Tracer222, with 60 min incubation time.
For the binding assay, 4 μL 2×HPK1 and Eu-anti-GST antibody were added to each well of the assay plate using a Multidrop reagent dispenser. The solutions were incubated in a 23 C incubator for 1 h. To each well of the assay plate was added 4 μL 2× Tracer-222 using a Multidrop reagent dispenser. The solutions were again incubated in a 23° C. incubator for 1 h. The results of the assay were read using an Envision plate reader with the following parameters: TR_FRET, 340ex/615 and 665em; […].
Compound Ki was analyzed using Morrison ki fit model in XL-fit
[formula] [formula] • b. Parameters: • E=enzyme concentration • S=Tracer222 concentration, Kd=Tracer222 Kd
All measurements are reported using the same units (nM).
Exemplary compounds were tested in the binding assays.

Point of comparison: `Cc1c(N)cncc1-c1cc(N)c2nnc(NC(=O)[C@@H]3C[C@H]3C#N)cc2c1` (single isomer, unassigned) [Compound 23a], Ki 0.7 nM. Against it:
- N#Cc1ccncc1-c1cc(N)c2nnc(NC(=O)[C@@H]3C[C@@H]3F)cc2c1 (racemic) [Compound 4, (+/−)-cis-N-(8-Amino-6-(4-cyanopyridin-3-yl)cinnolin-3-yl)-2-fluorocyclopropanecarboxamide] — 860-fold higher, 600 nM
- Nc1cc(C2CC2)cc2cc(NC(=O)[C@@H]3C[C@@H]3F)nnc12 (racemic) [Compound 7, cis-N-(8-Amino-6-cyclopropylcinnolin-3-yl)-2-fluorocyclopropane carboxamide] — 860-fold higher, 600 nM
- Cc1cnsc1-c1cc(N)c2nnc(NC(=O)[C@@H]3C[C@@H]3F)cc2c1 (racemic) [Compound 15, (+/−)-cis-N-[8-Amino-6-(4-methylisothiazol-5-yl)cinnolin-3-yl]-2-fluoro-cyclopropanecarboxamide] — 4.3-fold higher, 3 nM
- Cn1cc(-c2cc(N)c3nnc(NC(=O)[C@@H]4C[C@H]4C#N)cc3c2)cn1 (racemic) [Compound 19, (+/−)-trans-N-(8-Amino-6-(1-methyl-1H-pyrazol-4-yl)cinnolin-3-yl)-2-cyanocyclopropanecarboxamide] — 20-fold higher, 14 nM
- CCc1ccncc1-c1cc(N)c2nnc(NC(=O)[C@@H]3C[C@H]3C#N)cc2c1 (racemic) [Compound 20, (+/−)-trans-N-(8-Amino-6-(4-ethylpyridin-3-yl)cinnolin-3-yl)-2-cyanocyclopropanecarboxamide] — 19-fold higher, 13 nM
- CCc1ccncc1-c1cc(N)c2nnc(NC(=O)[C@@H]3C[C@@H]3F)cc2c1 (racemic) [Compound 21, (+/−)-cis-N-(8-Amino-6-(4-ethylpyridin-3-yl)cinnolin-3-yl)-2-fluorocyclopropanecarboxamide] — 5.7-fold higher, 4 nM
- Nc1cc(-c2cnccc2C2CC2)cc2cc(NC(=O)[C@@H]3C[C@@H]3F)nnc12 (racemic) [Compound 22, (+/−)-cis-N-(8-Amino-6-(4-cyclopropylpyridin-3-yl)cinnolin-3-yl)-2-fluorocyclopropanecarboxamide] — 44-fold higher, 31 nM
- Cc1c(N)cncc1-c1cc(N)c2nnc(NC(=O)[C@H]3C[C@@H]3C#N)cc2c1 (single isomer, unassigned) [Compound 23b] — 5.7-fold higher, 4 nM
- COc1ccncc1-c1cc(N)c2nnc(NC(=O)[C@@H]3C[C@@H]3F)cc2c1 [Compound 2a, (1S,2S)—N-(8-Amino-6-(4-methoxypyridin-3-yl)cinnolin-3-yl)-2-fluorocyclopropanecarboxamide] — 83-fold higher, 58 nM
- Cc1cc(N)ncc1-c1cc(N)c2nnc(NC(=O)[C@@H]3C[C@@H]3F)cc2c1 [Compound 5a, (1S,2S)—N-(8-Amino-6-(6-amino-4-methylpyridin-3-yl)cinnolin-3-yl)-2-fluorocyclopropanecarboxamide] — 21-fold higher, 15 nM
- CCc1cc(N)c2nnc(NC(=O)[C@@H]3C[C@@H]3F)cc2c1 [Compound 6a, (1S,2S)-N-(8-Amino-6-ethylcinnolin-3-yl)-2-fluorocyclopropanecarboxamide] — 630-fold higher, 440 nM
- CC(C)OC(=O)Nc1cc2cc(-c3cnn(C)c3)cc(N)c2nn1 [Compound 9, Isopropyl N-[8-amino-6-(1-methylpyrazol-4-yl)cinnolin-3-yl]carbamate] — 40-fold higher, 28 nM
- Cn1cc(-c2cc(N)c3nnc(NC(=O)N4CCCC4)cc3c2)cn1 [Compound 10, N-[8-Amino-6-(1-methylpyrazol-4-yl)cinnolin-3-yl]pyrrolidine-1-carboxamide] — 93-fold higher, 65 nM
- CCc1ccncc1-c1cc(N)c2nnc(NC(=O)NC(C)C)cc2c1 [Compound 11, 1-[8-Amino-6-(4-ethyl-3-pyridyl)cinnolin-3-yl]-3-isopropyl-urea] — 11-fold higher, 8 nM
- Cc1cnccc1-c1cc(N)c2nnc(NC(=O)[C@@H]3C[C@@H]3F)cc2c1 [Compound 17a, (1S,2S)—N-(8-Amino-6-(3-methylpyridin-4-yl)cinnolin-3-yl)-2-fluorocyclopropanecarboxamide] — 76-fold higher, 53 nM
- Cn1cc(-c2cc(N)c3nnc(NC(=O)[C@@H]4C[C@@H]4F)cc3c2)cn1 [Compound 18a, (1S,2S)—N-(8-Amino-6-(1-methyl-1H-pyrazol-4-yl)cinnolin-3-yl)-2-fluorocyclopropanecarboxamide] — 21-fold higher, 15 nM
- Cc1ccncc1-c1cc(C)c2nnc(NC(=O)C3CC3)cc2c1 [Compound 24, N-(8-Methyl-6-(4-methylpyridin-3-yl)cinnolin-3-yl)cyclopropanecarboxamide] — 370-fold higher, 260 nM
- Cc1ccncc1-c1cc(N)c2nnc(NC(=O)C3CC3)cc2c1 [Compound 25, N-(8-Amino-6-(4-methylpyridin-3-yl)cinnolin-3-yl)cyclopropanecarboxamide] — 2.7-fold higher, 1.9 nM
- Cc1ccncc1-c1cc(Cl)c2nnc(NC(=O)C3CC3)cc2c1 [Compound 26, N-(8-Chloro-6-(4-methylpyridin-3-yl)cinnolin-3-yl)cyclopropanecarboxamide] — higher, > 1000 nM
- Cc1ccncc1-c1ccc2nnc(NC(=O)C3CC3)cc2c1 [Compound 27, N-(6-(4-Methylpyridin-3-yl)cinnolin-3-yl)cyclopropanecarboxamide] — 730-fold higher, 510 nM

Each compound was assayed against HPK full length, T165E S171E (Homo sapiens (Human), UniProt Q92918, S171E/T165E) (assay: HPK1-FL HTRF Enzymatic Assay ("HTRF")). Details: H = HTRF; ATP 1 mM.
Chain of HPK full length, T165E S171E (Q92918 whole entry T165E/S171E): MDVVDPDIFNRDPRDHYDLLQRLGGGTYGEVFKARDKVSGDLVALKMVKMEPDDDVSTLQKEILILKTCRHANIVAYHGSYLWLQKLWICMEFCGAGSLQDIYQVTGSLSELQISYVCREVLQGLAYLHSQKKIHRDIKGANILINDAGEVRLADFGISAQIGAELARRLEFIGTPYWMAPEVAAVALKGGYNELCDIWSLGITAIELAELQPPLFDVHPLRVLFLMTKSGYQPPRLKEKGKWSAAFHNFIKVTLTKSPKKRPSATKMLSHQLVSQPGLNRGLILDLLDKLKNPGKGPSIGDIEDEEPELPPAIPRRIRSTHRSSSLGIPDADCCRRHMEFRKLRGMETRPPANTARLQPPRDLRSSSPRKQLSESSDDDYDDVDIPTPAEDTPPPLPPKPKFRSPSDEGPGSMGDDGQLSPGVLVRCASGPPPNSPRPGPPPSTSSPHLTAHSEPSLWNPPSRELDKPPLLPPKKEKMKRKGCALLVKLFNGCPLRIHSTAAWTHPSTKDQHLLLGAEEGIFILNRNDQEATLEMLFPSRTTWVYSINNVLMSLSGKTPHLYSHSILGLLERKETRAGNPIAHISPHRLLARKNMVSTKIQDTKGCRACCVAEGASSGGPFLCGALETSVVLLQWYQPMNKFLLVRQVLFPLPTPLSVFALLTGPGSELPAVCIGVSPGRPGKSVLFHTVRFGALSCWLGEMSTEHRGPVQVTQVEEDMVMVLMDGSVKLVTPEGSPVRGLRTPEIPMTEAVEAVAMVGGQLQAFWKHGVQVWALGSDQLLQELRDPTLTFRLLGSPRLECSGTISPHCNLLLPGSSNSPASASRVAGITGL
Assay type: biochemical
Procedure: Example BI: HPK1-FL HTRF Enzymatic Assay (“HTRF”)
HPK-FL enzyme phosphorylates Biotin-SLP-76 substrate in the presence of ATP at 1 mM and varying concentrations of test compound. Product is detected by FRET using Eu-anti-pSLP76 Ab and SA-XL665. Also see www.cisbio.com/HTRF for additional HTRF technology information.
• Assay plate: White ProxiPlate 384 F (PerkinElmer cat #6008289) • Kinase: HPK full length double mutant • Substrate: Biotin-SLP76 • ATP: 100 mM ATP • BSG: 2% BSG • DMSO: DMSO (Sigma cat #34869-100ML) • Reaction Buffer: H2O/50 mM HEPES, pH 7.5/10 mM MgCl2/2 mM TCEP/0.01% Brij-35/0.01% BSG • Detection mix: Eu-anti-pSLP76/SA-XL665 (Cisbio, #610SAXAC)
To a 384 well Proxiplate with 80 nL compound or DMSO spotted on was added 4 μl/well kinase mix. The mixture was preincubated for 30 minutes and then 4 μl/well substrate mix was added. The solution was incubated for 60 min and then 4 μl/well detection mix was added. The solution was incubated for another 60 min. The plates were then loaded onto a Perkin Elmer Envision and the TR-FRET signal was measured at 615 and 665 nm. A ratio of […] was used to calculate the % activity at each concentration of compound.

Point of comparison: `Cc1c(N)cncc1-c1cc(N)c2nnc(Nc3cc4n(n3)CC(=O)N(C(C)C)CC4)cc2c1` [Compound 29, 2-((8-Amino-6-(5-amino-4-methylpyridin-3-yl)cinnolin-3-yl)amino)-6-isopropyl-5,6-dihydro-4H-pyrazolo[1,5-d][1,4]diazepin-7(8H)-one], Ki 0.098 nM. Against it:
- Cc1c(N)cncc1-c1ccc2nnc(Nc3cc4n(n3)CC(=O)N(C(C)C)CC4)cc2c1 [Compound 28, 2-((6-(5-Amino-4-methylpyridin-3-yl)cinnolin-3-yl)amino)-6-isopropyl-5,6-dihydro-4H-pyrazolo[1,5-d][1,4]diazepin-7(8H)-one] — 410-fold higher, 40 nM
